# Assay results reported in PubChem BioAssay (NCI).
#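 96-well plates; 48 h exposure; 5 concentrations. Endpoints by linear interpolation between flanking doses. Not reached: highest tested concentration assigned. TGI denotes the concentration required for complete inhibition of growth.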
# Experiments:
# Test in all cases: NCI tumour cell line growth inhibition, 48 h
# [1] = system: MCF7 breast
# [2] = system: DLD-1 colon
# [3] = system: SF-268 CNS
# [4] = system: HL-60(TB) leukemia
# [5] = system: MALME-3M melanoma
# [6] = system: UO-31 renal
# [7] = system: SK-MEL-28 melanoma
# [8] = system: P388 leukemia
# [9] = system: UACC-257 melanoma
# [10] = system: A498 renal
# [11] = system: EKVX NSCLC
# [12] = system: SN12K1 renal
# [13] = system: U251 CNS
# [14] = system: SK-OV-3 ovarian
# [15] = system: HOP-62 NSCLC
# [16] = system: NCI-H23 lung
# [17] = system: RXF 393 renal
# [18] = system: OVCAR-5 ovarian
# [19] = system: HOP-92 NSCLC
# [20] = system: M19-MEL melanoma
# [21] = system: SN12C renal
# [22] = system: UACC-62 melanoma
# [23] = system: KM12 colon
# [24] = system: SNB-78 CNS
# [25] = system: OVCAR-3 ovarian
# [26] = system: HOP-18 NSCLC
# [27] = system: OVCAR-4 ovarian
# [28] = system: P388/ADR leukemia
# [29] = system: NCI/ADR-RES ovarian
# [30] = system: HCT-116 colon
# [31] = system: SK-MEL-5 melanoma
# [32] = system: SNB-19 CNS
# [33] = system: HT29 colon
# [34] = system: LOX IMVI melanoma
# [35] = system: OVCAR-8 ovarian
# [36] = system: COLO 205 colon
# [37] = system: CCRF-CEM leukemia
# [38] = system: DMS 273 small cell lung
# [39] = system: SNB-75 CNS
# [40] = system: KM20L2 colon
# [41] = system: HCT-15 colon
# [42] = system: XF 498 CNS
# [43] = system: IGROV1 ovarian
# [44] = system: MOLT-4 leukemia
# [45] = system: SF-295 CNS
# [46] = system: NCI-H522 lung
# [47] = system: CAKI-1 renal
# [48] = system: NCI-H460 lung
# [49] = system: SW-620 colon
# [50] = system: K-562 leukemia
# [51] = system: A549 NSCLC
# [52] = system: DMS 114 small cell lung
# [53] = system: HCC-2998 colon
# [54] = system: SF-539 CNS
# [55] = system: SK-MEL-2 melanoma
# [56] = system: NCI-H226 lung
# [57] = system: RPMI-8226 leukemia
# [58] = system: SR leukemia
# [59] = system: LXFL 529 NSCLC
# [60] = system: TK-10 renal
# [61] = system: ACHN renal
# [62] = system: M14 melanoma
# [63] = system: 786-0 renal
# [64] = system: RXF-631 renal
smiles,measurement,setting,value
c1ccc2c3c(ccc2c1)-c1[nH]ncc1CCO3,TGI,[1],> 100 µM
same,TGI,[2],> 100 µM
same,TGI,[3],98.8 µM
same,TGI,[4],41.2 µM
same,TGI,[5],> 100 µM
same,TGI,[6],65.2 µM
same,TGI,[7],> 100 µM
same,TGI,[8],> 100 µM
same,TGI,[9],83.6 µM
same,TGI,[10],99.7 µM
same,TGI,[11],45 µM
same,TGI,[12],> 79.8 µM
same,TGI,[13],51.8 µM
same,TGI,[14],> 100 µM
same,TGI,[15],> 91.9 µM
same,TGI,[16],75.7 µM
same,TGI,[17],> 74.2 µM
same,TGI,[18],> 86.2 µM
same,TGI,[19],57.7 µM
same,TGI,[20],> 100 µM
same,TGI,[21],> 80.4 µM
same,TGI,[22],> 62.9 µM
same,TGI,[23],> 100 µM
same,TGI,[24],> 100 µM
same,TGI,[25],> 82.1 µM
same,TGI,[26],> 100 µM
same,TGI,[27],> 84.9 µM
same,TGI,[28],> 100 µM
same,TGI,[29],> 100 µM
same,TGI,[30],> 88.5 µM
same,TGI,[31],> 71.3 µM
same,TGI,[32],> 100 µM
same,TGI,[33],> 100 µM
same,TGI,[34],> 93.6 µM
same,TGI,[35],> 90.1 µM
same,TGI,[36],99.7 µM
same,TGI,[37],> 100 µM
same,TGI,[38],> 100 µM
same,TGI,[39],> 74.9 µM
same,TGI,[40],> 95.1 µM
same,TGI,[41],> 100 µM
same,TGI,[42],79.8 µM
same,TGI,[43],> 86.9 µM
same,TGI,[44],77.5 µM
same,TGI,[45],> 86.1 µM
same,TGI,[46],> 81.5 µM
same,TGI,[47],> 64 µM
same,TGI,[48],> 88 µM
same,TGI,[49],> 100 µM
same,TGI,[50],> 100 µM
same,TGI,[51],> 100 µM
same,TGI,[52],> 82.4 µM
same,TGI,[53],> 100 µM
same,TGI,[54],69.8 µM
same,TGI,[55],85.3 µM
S=P1(Sc2ccccc2)Oc2ccc3ccccc3c2-c2c(ccc3ccccc23)O1,TGI,[1],> 100 µM
same,TGI,[2],> 100 µM
same,TGI,[3],> 100 µM
same,TGI,[4],> 100 µM
same,TGI,[5],> 100 µM
same,TGI,[6],> 100 µM
same,TGI,[7],> 100 µM
same,TGI,[8],> 100 µM
same,TGI,[9],> 100 µM
same,TGI,[10],> 100 µM
same,TGI,[11],> 100 µM
same,TGI,[56],> 100 µM
same,TGI,[12],> 100 µM
same,TGI,[13],> 100 µM
same,TGI,[14],> 100 µM
same,TGI,[57],> 100 µM
same,TGI,[15],> 100 µM
same,TGI,[16],> 100 µM
same,TGI,[17],> 100 µM
same,TGI,[18],> 100 µM
same,TGI,[19],> 100 µM
same,TGI,[20],> 100 µM
same,TGI,[21],> 100 µM
same,TGI,[22],> 100 µM
same,TGI,[23],> 100 µM
same,TGI,[24],> 100 µM
same,TGI,[25],> 100 µM
same,TGI,[26],> 100 µM
same,TGI,[27],> 100 µM
same,TGI,[28],> 100 µM
same,TGI,[29],> 100 µM
same,TGI,[30],> 100 µM
same,TGI,[31],> 100 µM
same,TGI,[32],> 100 µM
same,TGI,[33],> 100 µM
same,TGI,[34],> 100 µM
same,TGI,[35],> 100 µM
same,TGI,[36],> 100 µM
same,TGI,[37],> 100 µM
same,TGI,[38],> 100 µM
same,TGI,[39],> 100 µM
same,TGI,[40],> 100 µM
same,TGI,[41],> 100 µM
same,TGI,[42],> 100 µM
same,TGI,[43],> 100 µM
same,TGI,[44],> 100 µM
same,TGI,[45],> 100 µM
same,TGI,[46],> 100 µM
same,TGI,[47],> 100 µM
same,TGI,[48],> 100 µM
same,TGI,[49],> 100 µM
same,TGI,[50],> 100 µM
same,TGI,[51],> 100 µM
same,TGI,[52],> 100 µM
same,TGI,[53],> 100 µM
same,TGI,[54],> 100 µM
same,TGI,[55],> 100 µM
COc1ccc(CC(=O)NCCc2ccc(OC)c(OC)c2OC)cc1,TGI,[2],> 100 µM
same,TGI,[3],> 100 µM
same,TGI,[5],> 100 µM
same,TGI,[6],> 100 µM
same,TGI,[7],> 100 µM
same,TGI,[58],> 100 µM
same,TGI,[9],> 100 µM
same,TGI,[10],> 100 µM
same,TGI,[11],> 100 µM
same,TGI,[59],> 100 µM
same,TGI,[56],> 100 µM
same,TGI,[13],> 100 µM
same,TGI,[14],> 100 µM
same,TGI,[57],> 100 µM
same,TGI,[15],> 100 µM
same,TGI,[16],> 100 µM
same,TGI,[17],> 100 µM
same,TGI,[18],> 100 µM
same,TGI,[20],> 100 µM
same,TGI,[21],> 100 µM
same,TGI,[23],> 100 µM
same,TGI,[24],> 100 µM
same,TGI,[60],> 100 µM
same,TGI,[26],> 100 µM
same,TGI,[30],> 100 µM
same,TGI,[31],> 100 µM
same,TGI,[61],> 100 µM
same,TGI,[32],> 100 µM
same,TGI,[33],> 100 µM
same,TGI,[35],> 100 µM
same,TGI,[37],> 100 µM
same,TGI,[39],> 100 µM
same,TGI,[40],> 100 µM
same,TGI,[62],> 100 µM
same,TGI,[42],> 100 µM
same,TGI,[63],> 100 µM
same,TGI,[43],> 100 µM
same,TGI,[44],> 100 µM
same,TGI,[45],> 100 µM
same,TGI,[46],> 100 µM
same,TGI,[48],> 100 µM
same,TGI,[49],> 100 µM
same,TGI,[50],> 100 µM
same,TGI,[51],> 100 µM
same,TGI,[52],> 100 µM
same,TGI,[64],> 100 µM
same,TGI,[53],> 100 µM
same,TGI,[54],36.7 µM
same,TGI,[55],> 100 µM
